Assay results taken from patent publication EP4745137A1 (Gluetacs Therapeutics (Shanghai) Co., Ltd., priority 2023, dated 2025).

Columns and labels:
Type in all cases: cell-based
Settings in all cases: 24 hours of compound treatment, 50 nM and 500 nM tested (concentration behind the class not stated)
CK1α = target: T1, CK1α (Homo sapiens, UniProt P48729+Q96SW2); test: Western-blot assay of substrate protein degradation in hPBMCs, CK1α
T1 construct: endogenous in cells; host or cells: hPBMCs (Milecell Biotechnologies)
T1 sequence (P48729 whole entry): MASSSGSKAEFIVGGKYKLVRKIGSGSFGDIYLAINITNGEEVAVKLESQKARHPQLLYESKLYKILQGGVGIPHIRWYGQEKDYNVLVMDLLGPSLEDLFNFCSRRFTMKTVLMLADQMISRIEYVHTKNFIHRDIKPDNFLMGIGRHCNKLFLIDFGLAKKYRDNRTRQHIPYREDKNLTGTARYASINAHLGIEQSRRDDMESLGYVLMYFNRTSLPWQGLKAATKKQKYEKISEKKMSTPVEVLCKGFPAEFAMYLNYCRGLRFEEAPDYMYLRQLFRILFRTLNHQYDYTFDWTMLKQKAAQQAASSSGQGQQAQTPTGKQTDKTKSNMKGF
T1 sequence (Q96SW2 whole entry): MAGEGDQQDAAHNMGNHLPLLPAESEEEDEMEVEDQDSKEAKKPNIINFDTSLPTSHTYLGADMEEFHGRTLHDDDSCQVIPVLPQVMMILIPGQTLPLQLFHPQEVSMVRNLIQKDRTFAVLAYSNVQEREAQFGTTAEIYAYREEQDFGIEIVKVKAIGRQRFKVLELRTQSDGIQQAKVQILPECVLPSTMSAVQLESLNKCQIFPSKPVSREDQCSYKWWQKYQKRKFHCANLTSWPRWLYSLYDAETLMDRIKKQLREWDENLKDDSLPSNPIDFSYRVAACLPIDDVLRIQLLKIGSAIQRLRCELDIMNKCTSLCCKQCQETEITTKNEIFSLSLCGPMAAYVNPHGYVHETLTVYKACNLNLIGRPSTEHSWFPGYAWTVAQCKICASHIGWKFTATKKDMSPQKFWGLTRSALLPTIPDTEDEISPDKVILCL
T1 sequence (Q16531 whole entry partner): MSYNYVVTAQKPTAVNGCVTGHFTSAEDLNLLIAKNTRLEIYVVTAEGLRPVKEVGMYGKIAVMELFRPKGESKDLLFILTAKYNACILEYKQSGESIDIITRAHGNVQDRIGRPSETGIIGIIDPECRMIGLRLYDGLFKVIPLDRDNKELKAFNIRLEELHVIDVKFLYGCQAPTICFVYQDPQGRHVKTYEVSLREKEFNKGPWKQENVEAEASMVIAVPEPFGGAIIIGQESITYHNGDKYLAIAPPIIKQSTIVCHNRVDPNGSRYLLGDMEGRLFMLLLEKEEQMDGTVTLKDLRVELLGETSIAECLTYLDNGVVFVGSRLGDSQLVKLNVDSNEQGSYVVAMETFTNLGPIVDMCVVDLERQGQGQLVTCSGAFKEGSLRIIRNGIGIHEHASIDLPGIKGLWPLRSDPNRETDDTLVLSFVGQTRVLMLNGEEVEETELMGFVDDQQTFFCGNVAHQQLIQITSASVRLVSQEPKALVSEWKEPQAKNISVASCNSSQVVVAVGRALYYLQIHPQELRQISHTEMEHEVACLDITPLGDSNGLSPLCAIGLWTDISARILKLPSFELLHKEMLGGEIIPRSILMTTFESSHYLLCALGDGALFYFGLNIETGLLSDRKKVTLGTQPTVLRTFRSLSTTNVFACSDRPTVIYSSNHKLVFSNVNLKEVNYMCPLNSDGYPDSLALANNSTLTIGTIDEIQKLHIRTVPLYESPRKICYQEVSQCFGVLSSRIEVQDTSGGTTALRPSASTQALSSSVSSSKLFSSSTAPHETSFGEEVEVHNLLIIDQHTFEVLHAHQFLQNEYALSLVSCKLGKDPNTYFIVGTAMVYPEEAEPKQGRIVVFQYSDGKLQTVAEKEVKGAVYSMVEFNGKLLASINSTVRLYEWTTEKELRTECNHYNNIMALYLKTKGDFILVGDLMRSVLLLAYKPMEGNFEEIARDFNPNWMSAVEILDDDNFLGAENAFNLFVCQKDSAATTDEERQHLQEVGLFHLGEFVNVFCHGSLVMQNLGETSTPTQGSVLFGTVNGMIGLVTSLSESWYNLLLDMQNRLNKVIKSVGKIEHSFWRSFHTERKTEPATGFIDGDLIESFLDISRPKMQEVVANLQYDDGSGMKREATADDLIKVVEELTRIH

WEE1 = target: T2, WEE1 (Homo sapiens, UniProt P30291+Q96SW2); test: Western-blot assay of substrate protein degradation in hPBMCs, WEE1
T2 construct: endogenous in cells; host or cells: hPBMCs (Milecell Biotechnologies)
T2 sequence (P30291 whole entry): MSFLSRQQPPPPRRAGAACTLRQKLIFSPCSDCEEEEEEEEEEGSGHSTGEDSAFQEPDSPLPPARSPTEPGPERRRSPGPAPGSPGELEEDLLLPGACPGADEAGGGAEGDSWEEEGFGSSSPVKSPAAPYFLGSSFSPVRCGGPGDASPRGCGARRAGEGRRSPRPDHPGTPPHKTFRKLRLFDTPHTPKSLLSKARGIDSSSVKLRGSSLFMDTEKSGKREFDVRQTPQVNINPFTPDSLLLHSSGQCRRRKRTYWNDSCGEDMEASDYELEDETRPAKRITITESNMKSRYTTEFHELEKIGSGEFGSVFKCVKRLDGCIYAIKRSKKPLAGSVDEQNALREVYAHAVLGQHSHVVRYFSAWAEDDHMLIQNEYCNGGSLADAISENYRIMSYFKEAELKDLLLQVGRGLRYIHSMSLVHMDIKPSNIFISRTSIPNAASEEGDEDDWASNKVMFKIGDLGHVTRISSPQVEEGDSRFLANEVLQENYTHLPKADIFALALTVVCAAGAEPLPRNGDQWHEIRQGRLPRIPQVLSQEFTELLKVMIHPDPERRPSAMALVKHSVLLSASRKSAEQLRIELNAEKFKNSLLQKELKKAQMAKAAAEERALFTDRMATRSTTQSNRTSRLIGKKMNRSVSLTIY
T2 sequence (Q96SW2 whole entry): as the sequence (Q96SW2 whole entry) above
T2 sequence (Q16531 whole entry partner): as the sequence (Q16531 whole entry partner) above

GSPT1 = target: T3, GSPT1 (Homo sapiens, UniProt P15170+Q96SW2); test: Western-blot assay of substrate protein degradation in hPBMCs, GSPT1
T3 construct: endogenous in cells; host or cells: hPBMCs (Milecell Biotechnologies)
T3 sequence (P15170 whole entry): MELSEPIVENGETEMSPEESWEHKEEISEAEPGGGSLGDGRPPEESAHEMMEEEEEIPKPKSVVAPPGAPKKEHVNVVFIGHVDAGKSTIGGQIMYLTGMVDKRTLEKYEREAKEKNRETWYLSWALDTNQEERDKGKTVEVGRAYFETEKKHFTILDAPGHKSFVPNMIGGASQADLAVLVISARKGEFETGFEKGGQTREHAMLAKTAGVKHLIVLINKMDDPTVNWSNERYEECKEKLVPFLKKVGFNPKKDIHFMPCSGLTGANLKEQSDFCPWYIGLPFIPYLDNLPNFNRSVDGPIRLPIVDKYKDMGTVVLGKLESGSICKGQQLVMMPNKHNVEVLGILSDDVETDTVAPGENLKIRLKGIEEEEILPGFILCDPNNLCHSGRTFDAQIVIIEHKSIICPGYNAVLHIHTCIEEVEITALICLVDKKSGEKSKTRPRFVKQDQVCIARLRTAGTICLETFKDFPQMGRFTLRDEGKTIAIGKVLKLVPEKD
T3 sequence (Q96SW2 whole entry): as the sequence (Q96SW2 whole entry) above
T3 sequence (Q16531 whole entry partner): as the sequence (Q16531 whole entry partner) above

IKZF1 = target: T4, IKZF1 (Homo sapiens, UniProt Q13422+Q96SW2); test: Western-blot assay of substrate protein degradation in hPBMCs, IKZF1
T4 construct: endogenous in cells; host or cells: hPBMCs (Milecell Biotechnologies)
T4 sequence (Q13422 whole entry): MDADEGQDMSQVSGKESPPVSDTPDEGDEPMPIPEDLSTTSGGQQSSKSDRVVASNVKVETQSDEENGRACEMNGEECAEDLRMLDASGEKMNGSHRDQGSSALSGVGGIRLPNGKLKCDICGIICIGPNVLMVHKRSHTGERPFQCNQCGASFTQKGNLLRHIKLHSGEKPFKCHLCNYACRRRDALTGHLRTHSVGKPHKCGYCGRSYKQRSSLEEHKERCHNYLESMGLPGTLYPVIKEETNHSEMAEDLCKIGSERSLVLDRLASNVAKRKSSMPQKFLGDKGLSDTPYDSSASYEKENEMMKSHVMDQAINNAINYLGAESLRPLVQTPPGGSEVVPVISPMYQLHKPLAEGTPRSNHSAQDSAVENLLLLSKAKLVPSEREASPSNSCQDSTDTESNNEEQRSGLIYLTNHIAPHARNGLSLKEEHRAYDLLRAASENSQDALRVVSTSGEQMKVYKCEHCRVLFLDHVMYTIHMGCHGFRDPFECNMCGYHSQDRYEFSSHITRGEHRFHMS
T4 sequence (Q96SW2 whole entry): as the sequence (Q96SW2 whole entry) above
T4 sequence (Q16531 whole entry partner): as the sequence (Q16531 whole entry partner) above

IKZF3 = target: T5, IKZF3 (Homo sapiens, UniProt Q96SW2+Q9UKT9); test: Western-blot assay of substrate protein degradation in hPBMCs, IKZF3
T5 construct: endogenous in cells; host or cells: hPBMCs (Milecell Biotechnologies)

IKZF2 = target: T6, IKZF2 (Homo sapiens, UniProt Q96SW2+Q9UKS7); test: Western-blot assay of substrate protein degradation in hPBMCs, IKZF2
T6 construct: endogenous in cells; host or cells: hPBMCs (Milecell Biotechnologies)
T6 sequence (Q9UKS7 whole entry): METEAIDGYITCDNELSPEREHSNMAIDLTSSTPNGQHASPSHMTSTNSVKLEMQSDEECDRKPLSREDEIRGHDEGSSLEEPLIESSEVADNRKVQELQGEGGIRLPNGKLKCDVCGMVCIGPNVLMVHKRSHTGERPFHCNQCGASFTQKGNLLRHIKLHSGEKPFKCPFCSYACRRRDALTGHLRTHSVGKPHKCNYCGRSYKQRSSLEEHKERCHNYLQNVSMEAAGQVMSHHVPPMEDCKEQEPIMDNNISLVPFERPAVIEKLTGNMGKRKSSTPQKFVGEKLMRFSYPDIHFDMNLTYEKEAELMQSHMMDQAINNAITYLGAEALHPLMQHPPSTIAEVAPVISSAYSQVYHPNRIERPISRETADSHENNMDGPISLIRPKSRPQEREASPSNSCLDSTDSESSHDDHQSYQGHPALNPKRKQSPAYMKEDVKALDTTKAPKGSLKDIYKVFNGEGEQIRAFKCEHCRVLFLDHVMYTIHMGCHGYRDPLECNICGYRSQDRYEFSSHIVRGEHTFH
T6 sequence (Q96SW2 whole entry): as the sequence (Q96SW2 whole entry) above
T6 sequence (Q16531 whole entry partner): as the sequence (Q16531 whole entry partner) above

SMILES	CK1a substrate protein remaining % (CK1α)	Weel substrate protein remaining % (WEE1)	GSPT1 substrate protein remaining % (GSPT1)	IKZF 1 substrate protein remaining % (IKZF1)	IKZF3 substrate protein remaining % (IKZF3)	IKZF2 substrate protein remaining % (IKZF2)
O=C1CCC(N2C(=O)c3ccc(CN4CCN(c5ccc(Cl)c(Cl)c5)CC4)cc3C2=O)C(=O)N1 (stereo not drawn) [GT-06298, 5-((4-(3,4-dichlorophenyl)piperazin-1-yl)methyl)-2-(2,6-dioxopiperidin-3-yl)isoindoline-1,3-dione]	B (80%< substrate protein remaining %≤ 100%)	B (80%< substrate protein remaining %≤ 100%)	A (0% ≤ substrate protein remaining % ≤ 80%)	B (80%< substrate protein remaining %≤ 100%)	B (80%< substrate protein remaining %≤ 100%)	B (80%< substrate protein remaining %≤ 100%)
O=C1CCC(N2C(=O)c3ccc(CN4CCN(c5ccnc(Cl)c5Cl)CC4)cc3C2=O)C(=O)N1 (stereo not drawn) [GT-06534, 5-((4-(2,3-dichloropyridin-4-yl)piperazin-1-yl)methyl)-2-(2,6-dioxopiperidin-3-yl)isoindoline-1,3-dione]	B (80%< substrate protein remaining %≤ 100%)	B (80%< substrate protein remaining %≤ 100%)	A (0% ≤ substrate protein remaining % ≤ 80%)	B (80%< substrate protein remaining %≤ 100%)	B (80%< substrate protein remaining %≤ 100%)	B (80%< substrate protein remaining %≤ 100%)
O=C1CCC(N2C(=O)c3ccc(CN4CCN(c5ccc(F)cc5)CC4)cc3C2=O)C(=O)N1 (stereo not drawn) [GT-06292, 2-(2,6-dioxopiperidin-3-yl)-5-((4-(4-fluorophenyl)piperazin-1-yl)methyl)isoindoline-1,3-dione]	B (80%< substrate protein remaining %≤ 100%)	B (80%< substrate protein remaining %≤ 100%)	A (0% ≤ substrate protein remaining % ≤ 80%)	B (80%< substrate protein remaining %≤ 100%)	B (80%< substrate protein remaining %≤ 100%)	B (80%< substrate protein remaining %≤ 100%)
O=C1CCC(N2C(=O)c3ccc(CN4CC5CCC(C4)N5c4cccc(Cl)c4Cl)cc3C2=O)C(=O)N1 (stereo not drawn) [GT-06693, 5-((8-(2,3-dichlorophenyl)-3,8-diazabicyclo[3.2.1]octan-3-yl)methyl)-2-(2,6-dioxopiperidin-3-yl)isoindoline-1,3-dione]	B (80%< substrate protein remaining %≤ 100%)	A (0% ≤ substrate protein remaining % ≤ 80%)	A (0% ≤ substrate protein remaining % ≤ 80%)	B (80%< substrate protein remaining %≤ 100%)	B (80%< substrate protein remaining %≤ 100%)	A (0% ≤ substrate protein remaining % ≤ 80%)
O=C1CCC(N2C(=O)c3ccc(CN4CCN(c5ccccc5Br)CC4)cc3C2=O)C(=O)N1 (stereo not drawn) [GT-06293, 5-((4-(2-bromophenyl)piperazin-1-yl)methyl)-2-(2,6-dioxopiperidin-3-yl)isoindoline-1,3-dione]	B (80%< substrate protein remaining %≤ 100%)	B (80%< substrate protein remaining %≤ 100%)	A (0% ≤ substrate protein remaining % ≤ 80%)	B (80%< substrate protein remaining %≤ 100%)	B (80%< substrate protein remaining %≤ 100%)	B (80%< substrate protein remaining %≤ 100%)
Cc1ccccc1N1CCN(Cc2ccc3c(c2)C(=O)N(C2CCC(=O)NC2=O)C3=O)CC1 (stereo not drawn) [GT-06296, 2-(2,6-dioxopiperidin-3-yl)-5-((4-(o-tolyl)piperazin-1-yl)methyl)isoindoline-1,3-dione]	B (80%< substrate protein remaining %≤ 100%)	B (80%< substrate protein remaining %≤ 100%)	A (0% ≤ substrate protein remaining % ≤ 80%)	B (80%< substrate protein remaining %≤ 100%)	B (80%< substrate protein remaining %≤ 100%)	B (80%< substrate protein remaining %≤ 100%)
O=C1CCC(N2C(=O)c3ccc(CN4CCN(c5cccc(C(F)(F)F)n5)CC4)cc3C2=O)C(=O)N1 (stereo not drawn) [GT-06530, 2-(2,6-dioxopiperidin-3-yl)-5-((4-(6-(trifluoromethyl)pyridin-2-yl)piperazin-1-yl)methyl)isoindoline-1,3-dione]	B (80%< substrate protein remaining %≤ 100%)	B (80%< substrate protein remaining %≤ 100%)	A (0% ≤ substrate protein remaining % ≤ 80%)	B (80%< substrate protein remaining %≤ 100%)	B (80%< substrate protein remaining %≤ 100%)	B (80%< substrate protein remaining %≤ 100%)
O=C1CCC(N2C(=O)c3ccc(CN4CCN(c5ccnc(Cl)c5)CC4)cc3C2=O)C(=O)N1 (stereo not drawn) [GT-06619, 5-((4-(2-chloropyridin-4-yl)piperazin-1-yl)methyl)-2-(2,6-dioxopiperidin-3-yl)isoindoline-1,3-dione]	B (80%< substrate protein remaining %≤ 100%)	B (80%< substrate protein remaining %≤ 100%)	A (0% ≤ substrate protein remaining % ≤ 80%)	B (80%< substrate protein remaining %≤ 100%)	A (0% ≤ substrate protein remaining % ≤ 80%)	B (80%< substrate protein remaining %≤ 100%)
O=C1CCC(N2C(=O)c3ccc(CN4CCN(c5ccc(Cl)cn5)CC4)cc3C2=O)C(=O)N1 (stereo not drawn) [GT-06524, 5-((4-(5-chloropyridin-2-yl)piperazin-1-yl)methyl)-2-(2,6-dioxopiperidin-3-yl)isoindoline-1,3-dione]	B (80%< substrate protein remaining %≤ 100%)	B (80%< substrate protein remaining %≤ 100%)	A (0% ≤ substrate protein remaining % ≤ 80%)	A (0% ≤ substrate protein remaining % ≤ 80%)	B (80%< substrate protein remaining %≤ 100%)	B (80%< substrate protein remaining %≤ 100%)
O=C1CCC(N2C(=O)c3ccc(CN4CCC(c5ncnc6sc(-c7ccccc7)cc56)CC4)cc3C2=O)C(=O)N1 (stereo not drawn) [GT-06594, 2-(2,6-dioxopiperidin-3-yl)-5-((4-(6-phenylthieno[2,3-d]pyrimidin-4-yl)piperidin-1-yl)methyl)isoindoline-1,3-dione]	B (80%< substrate protein remaining %≤ 100%)	A (0% ≤ substrate protein remaining % ≤ 80%)	A (0% ≤ substrate protein remaining % ≤ 80%)	A (0% ≤ substrate protein remaining % ≤ 80%)	A (0% ≤ substrate protein remaining % ≤ 80%)	A (0% ≤ substrate protein remaining % ≤ 80%)
O=C1CCC(N2C(=O)c3ccc(CN4CCN(c5ccc(F)cc5F)CC4)cc3C2=O)C(=O)N1 (stereo not drawn) [GT-06361, 5-((4-(2,4-difluorophenyl)piperazin-1-yl)methyl)-2-(2,6-dioxopiperidin-3-yl)isoindoline-1,3-dione]	B (80%< substrate protein remaining %≤ 100%)	B (80%< substrate protein remaining %≤ 100%)	A (0% ≤ substrate protein remaining % ≤ 80%)	B (80%< substrate protein remaining %≤ 100%)	B (80%< substrate protein remaining %≤ 100%)	B (80%< substrate protein remaining %≤ 100%)
Cc1sc2ncnc(N3CCCN(Cc4ccc5c(c4)C(=O)N(C4CCC(=O)NC4=O)C5=O)CC3)c2c1C (stereo not drawn) [GT-06308, 5-((4-(5,6-dimethylthieno[2,3-d]pyrimidin-4-yl)-1,4-diazepan-1-yl)methyl)-2-(2,6-dioxopiperidin-3-yl)isoindoline-1,3-dione]	B (80%< substrate protein remaining %≤ 100%)	B (80%< substrate protein remaining %≤ 100%)	B (80%< substrate protein remaining %≤ 100%)	A (0% ≤ substrate protein remaining % ≤ 80%)	B (80%< substrate protein remaining %≤ 100%)	A (0% ≤ substrate protein remaining % ≤ 80%)
O=C1CCC(N2C(=O)c3ccc(CN4CCN(c5ncc(Cl)cc5Cl)CC4)cc3C2=O)C(=O)N1 (stereo not drawn) [GT-06532, 5-((4-(3,5-dichloropyridin-2-yl)piperazin-1-yl)methyl)-2-(2,6-dioxopiperidin-3-yl)isoindoline-1,3-dione]	B (80%< substrate protein remaining %≤ 100%)	B (80%< substrate protein remaining %≤ 100%)	A (0% ≤ substrate protein remaining % ≤ 80%)	B (80%< substrate protein remaining %≤ 100%)	B (80%< substrate protein remaining %≤ 100%)	B (80%< substrate protein remaining %≤ 100%)
